Key:
[1] = system: atrial fibrillation (AF) in anesthetized thoracotomy dog; assay: Effect of termination and prevention of atrium fibrillation (AF) in anesthetized thoracotomy dog; assay type: in vivo; settings: samples with effect / samples tested
Text: (1) An anesthetized thoracotomy dog was used for the present experiment. After opening brisket at a median line and cutting epicardium, bipolar electrodes for determination of a potential wave form were respectively stitched at the free walls of right and left atriums. Further, a wire electrode was inserted in the free wall of a right atrium to be fixed and used for electrical simulation. After cutting cervix at a median line, right and left vagal nerves were peeled. Wire electrodes for stimulating vagal nerves were inserted along the surface layers of the respective both sides to be fixed and used as stimulation for vagal nerves.
(2) Electrical stimulation was carried out under conditions: a stimulation duration of 0.1 mess; a x stimulation frequency of 20 Hz; and a stimulation intensity of 3 to 7 V. After 5 minutes of the start of the stimulation, high frequency stimulation (10 Hz, 1 sec) was applied to the right atrium, and the induction of atrial fibrillation (hereinafter, abbreviated as “AF”) was tried. The stimulation intensity of high frequency stimulation of the right atrium was carried out from 1.0 V, and when AF was not induced, induction was tried by increasing the stimulation intensity to 5.0 V. After AF was induced, observation for 30 minutes was carried out, it was confirmed that AF is kept (control experiment). Further, when AF induced was not kept for 30 minutes, the experiment was stopped.
(3) After confirming that AF was kept for 30 minutes or more in the control experiment, the stimulation of vagal nerve was intercepted, and the dog was rested for about one hour to be recovered. After that, similarly, AF was induced again. Further, the stimulation of vagal nerve at this time was carried out at the higher stimulation intensity by about 2 V than at the control experiment. After 5 minutes of the induction of AF, the administration of a tested substance was carried out. The tested substance was administered intravenously over 5 minutes. After completion of the administration, observation was carried out for 5 minutes, and when the termination of AF was not observed, the dose was increased and the observation was similarly carried out. When AF was stopped, the induction of AF was tried again just after termination. At this time, when AF which was continued for one minute or more was induced again, it was judged as no effect of prevention, and experiment was similarly carried out by increasing the dose.
In the Table, the number of the denominator indicates the number of the sample used for test, and the number of the numerator indicates the number of the sample in which the effect was confirmed.

[2] = system: atrial muscle of anesthetized thoracotomy dog; assay: Effective refractory period (ERP) in anesthetized thoracotomy dog; assay type: in vivo; settings: for Measurement Value of ERP: mean
Text: (1) An anesthetized thoracotomy dog was used for the present experiment. After opening brisket at a median line and cutting epicardium, bipolar electrodes for determination of a potential wave form were respectively stitched at the free walls of right and left atriums. Further, a wire electrode was inserted in the free wall of a right atrium to be fixed and used for electrical simulation.
(2) A program electrical stimulation equipment was connected with the electrode for electrical stimulation at the right atrium, the electrical stimulation was carried out at a stimulation periodical length of 500 mess, and a threshold for the electrical stimulation was measured. The electrical stimulation intensity for the experiments below was set to carry out stimulation at 3-fold of this threshold. However, when the threshold was 0.7 V or less, the electrical stimulation was carried out at 2.0 V. Effective refractory period (ERP) provided early premature stimulation (S2) after the basic stimulation (S1) of 10 times, and the longest linking period in which atrium potential was not generated by the premature stimulation was referred to as ERP, while shortening the linking period (S1-S2) by 5 mess. Similar experiments were also carried out for the respective basic stimulation length (BCL) of 400, 300, 250 and 200 mess (control experiment: 1 series). After carrying out 2 times or more of the control experiments and confirming that ERP was stable, the tested substance was subsequently administered, and similar measurement was carried out. After the tested substance was administered once intravenously for 5 minutes, its keeping dose was subsequently administered intravenously. After 10 minutes of the administration start of the keeping dose, ERP was measured in the respective stimulation frequency. After completion of the one series of measurements, the concentration of the tested substance was increased and the similar experiments were repeated. The ERP and conduction time in the atrium in the respective stimulation frequency were compared with various indices under control condition. The result is shown by mean.

CS(=O)(=O)c1ccsc1CCC1CCN(Cc2ccc[nH]c2=O)CC1 [Example 135, 1-[(2-Oxo-1,2-dihydro-3-pyridinyl)methyl]-4-[2-(3-methylsulfonyl-2-thienyl)ethyl]piperidine]
the termination effect ([1]; dose 0.3 mg/kg intravenously over 5 minutes): 1/3 | the prevention effect ([1]; dose 0.3 mg/kg intravenously): 1/1 | the termination effect ([1]; dose 1 mg/kg intravenously over 5 minutes): 2/2 | the prevention effect ([1]; dose 1 mg/kg intravenously): 2/2 | Measurement Value of ERP ([2]; dose 0.1 mg/kg intravenously, BCL 200 msec): 125.0 ms | Measurement Value of ERP ([2]; dose 0.1 mg/kg intravenously, BCL 250 msec): 138.3 ms | Measurement Value of ERP ([2]; dose 0.1 mg/kg intravenously, BCL 300 msec): 155.0 ms | Measurement Value of ERP ([2]; dose 0.1 mg/kg intravenously, BCL 400 msec): 170.0 ms | Measurement Value of ERP ([2]; dose 0.1 mg/kg intravenously, BCL 500 msec): 178.3 ms | Percent change in ERP versus pre-dose control ([2]; dose 0.1 mg/kg, BCL 200 msec): 7.1% | Percent change in ERP versus pre-dose control ([2]; dose 0.1 mg/kg, BCL 250 msec): 3.9% | Percent change in ERP versus pre-dose control ([2]; dose 0.1 mg/kg, BCL 300 msec): 5.7% | Percent change in ERP versus pre-dose control ([2]; dose 0.1 mg/kg, BCL 400 msec): 3.0% | Percent change in ERP versus pre-dose control ([2]; dose 0.1 mg/kg, BCL 500 msec): 3.1% | Measurement Value of ERP ([2]; dose 0.3 mg/kg intravenously, BCL 200 msec): 138.3 ms | Measurement Value of ERP ([2]; dose 0.3 mg/kg intravenously, BCL 250 msec): 150.0 ms | Measurement Value of ERP ([2]; dose 0.3 mg/kg intravenously, BCL 300 msec): 166.7 ms | Measurement Value of ERP ([2]; dose 0.3 mg/kg intravenously, BCL 400 msec): 181.7 ms | Measurement Value of ERP ([2]; dose 0.3 mg/kg intravenously, BCL 500 msec): 190.0 ms | Percent change in ERP versus pre-dose control ([2]; dose 0.3 mg/kg, BCL 200 msec): 18.6% | Percent change in ERP versus pre-dose control ([2]; dose 0.3 mg/kg, BCL 250 msec): 12.6% | Percent change in ERP versus pre-dose control ([2]; dose 0.3 mg/kg, BCL 300 msec): 13.7% | Percent change in ERP versus pre-dose control ([2]; dose 0.3 mg/kg, BCL 400 msec): 10.1% | Percent change in ERP versus pre-dose control ([2]; dose 0.3 mg/kg, BCL 500 msec): 9.8% | Measurement Value of ERP ([2]; dose 1 mg/kg intravenously, BCL 250 msec): 183.3 ms | Measurement Value of ERP ([2]; dose 1 mg/kg intravenously, BCL 300 msec): 195.0 ms | Measurement Value of ERP ([2]; dose 1 mg/kg intravenously, BCL 400 msec): 203.3 ms | Measurement Value of ERP ([2]; dose 1 mg/kg intravenously, BCL 500 msec): 208.3 ms | Percent change in ERP versus pre-dose control ([2]; dose 1 mg/kg, BCL 250 msec): 37.9% | Percent change in ERP versus pre-dose control ([2]; dose 1 mg/kg, BCL 300 msec): 33.2% | Percent change in ERP versus pre-dose control ([2]; dose 1 mg/kg, BCL 400 msec): 23.4% | Percent change in ERP versus pre-dose control ([2]; dose 1 mg/kg, BCL 500 msec): 20.6%
